{
  "source": "ChEMBL document CHEMBL1201862",
  "about": "“PubChem BioAssay data set” (2004)",
  "experiment_in_all_cases": "DTP human tumour cell line panel, 48 h",
  "key": {"[1]": {"test_system": "DU-145"}, "[2]": {"test_system": "K562"}, "[3]": {"test_system": "KM12"}, "[4]": {"test_system": "M14"}, "[5]": {"test_system": "EKVX"}, "[6]": {"test_system": "IGROV-1"}, "[7]": {"test_system": "NCI-H522"}, "[8]": {"test_system": "A498"}, "[9]": {"test_system": "UACC-62"}, "[10]": {"test_system": "NCI-H460"}, "[11]": {"test_system": "U-251"}, "[12]": {"test_system": "HT-29"}, "[13]": {"test_system": "PC-3"}, "[14]": {"test_system": "SF-268"}, "[15]": {"test_system": "OVCAR-8"}, "[16]": {"test_system": "UACC-257"}, "[17]": {"test_system": "OVCAR-3"}, "[18]": {"test_system": "CAKI-1"}, "[19]": {"test_system": "SF-539"}, "[20]": {"test_system": "SK-MEL-28"}, "[21]": {"test_system": "Malme-3M"}, "[22]": {"test_system": "RXF 393"}, "[23]": {"test_system": "OVCAR-5"}, "[24]": {"test_system": "ACHN"}, "[25]": {"test_system": "SN12C"}, "[26]": {"test_system": "SR"}, "[27]": {"test_system": "HCT-116"}, "[28]": {"test_system": "SNB-75"}, "[29]": {"test_system": "UO-31"}, "[30]": {"test_system": "COLO 205"}, "[31]": {"test_system": "LOX IMVI"}, "[32]": {"test_system": "MDA-MB-435"}, "[33]": {"test_system": "HOP-62"}, "[34]": {"test_system": "SF-295"}, "[35]": {"test_system": "Hs-578T"}, "[36]": {"test_system": "RPMI-8226"}, "[37]": {"test_system": "SNB-19"}, "[38]": {"test_system": "MOLT-4"}, "[39]": {"test_system": "MDA-MB-231"}, "[40]": {"test_system": "OVCAR-4"}, "[41]": {"test_system": "SW-620"}, "[42]": {"test_system": "A549"}, "[43]": {"test_system": "SK-MEL-2"}, "[44]": {"test_system": "NCI/ADR-RES"}, "[45]": {"test_system": "NCI-H23"}, "[46]": {"test_system": "SK-OV-3"}, "[47]": {"test_system": "MDA-N"}, "[48]": {"test_system": "NCI-H226"}, "[49]": {"test_system": "MCF7"}, "[50]": {"test_system": "HCT-15"}, "[51]": {"test_system": "786-0"}, "[52]": {"test_system": "T47D"}, "[53]": {"test_system": "CCRF-CEM"}, "[54]": {"test_system": "TK-10"}, "[55]": {"test_system": "SK-MEL-5"}, "[56]": {"test_system": "HCC 2998"}, "[57]": {"test_system": "HOP-92"}},
  "note": "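In this assay, cells in 96-well plates receive the compound at five concentrations for 48 hours. Endpoints are linearly interpolated between the surrounding concentrations. Abbreviation: GI50, concentration required for 50% inhibition of growth.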 Active and inactive are the calls of the source. Cut-off read from the data, not from the text of the source: active = GI50 up to about 1.1 µM and inactive = higher.",
  "data": [
    {"smiles": "CC(C)(C)N1NC1C1NN1C(C)(C)C", "note": "(configuration not stated)", "values": [
      {"measurement": "GI50", "setting": "[1]", "result": "> 100 µM (inactive)"},
      {"measurement": "GI50", "setting": "[2]", "result": "> 100 µM (inactive)"},
      {"measurement": "GI50", "setting": "[3]", "result": "> 100 µM (inactive)"},
      {"measurement": "GI50", "setting": "[4]", "result": "> 100 µM (inactive)"},
      {"measurement": "GI50", "setting": "[5]", "result": "> 100 µM (inactive)"},
      {"measurement": "GI50", "setting": "[6]", "result": "> 100 µM (inactive)"},
      {"measurement": "GI50", "setting": "[7]", "result": "> 100 µM (inactive)"},
      {"measurement": "GI50", "setting": "[8]", "result": "> 100 µM (inactive)"},
      {"measurement": "GI50", "setting": "[9]", "result": "> 100 µM (inactive)"},
      {"measurement": "GI50", "setting": "[10]", "result": "> 100 µM (inactive)"},
      {"measurement": "GI50", "setting": "[11]", "result": "> 100 µM (inactive)"},
      {"measurement": "GI50", "setting": "[12]", "result": "> 100 µM (inactive)"},
      {"measurement": "GI50", "setting": "[13]", "result": "> 100 µM (inactive)"},
      {"measurement": "GI50", "setting": "[14]", "result": "> 100 µM (inactive)"},
      {"measurement": "GI50", "setting": "[15]", "result": "> 100 µM (inactive)"},
      {"measurement": "GI50", "setting": "[16]", "result": "> 100 µM (inactive)"},
      {"measurement": "GI50", "setting": "[17]", "result": "> 100 µM (inactive)"},
      {"measurement": "GI50", "setting": "[18]", "result": "> 100 µM (inactive)"},
      {"measurement": "GI50", "setting": "[19]", "result": "> 100 µM (inactive)"},
      {"measurement": "GI50", "setting": "[20]", "result": "> 100 µM (inactive)"},
      {"measurement": "GI50", "setting": "[21]", "result": "> 100 µM (inactive)"},
      {"measurement": "GI50", "setting": "[22]", "result": "> 100 µM (inactive)"},
      {"measurement": "GI50", "setting": "[23]", "result": "> 100 µM (inactive)"},
      {"measurement": "GI50", "setting": "[24]", "result": "> 100 µM (inactive)"},
      {"measurement": "GI50", "setting": "[25]", "result": "> 100 µM (inactive)"},
      {"measurement": "GI50", "setting": "[26]", "result": "> 100 µM (inactive)"},
      {"measurement": "GI50", "setting": "[27]", "result": "> 100 µM (inactive)"},
      {"measurement": "GI50", "setting": "[28]", "result": "> 100 µM (inactive)"},
      {"measurement": "GI50", "setting": "[29]", "result": "> 100 µM (inactive)"},
      {"measurement": "GI50", "setting": "[30]", "result": "> 100 µM (inactive)"},
      {"measurement": "GI50", "setting": "[31]", "result": "> 100 µM (inactive)"},
      {"measurement": "GI50", "setting": "[32]", "result": "> 100 µM (inactive)"},
      {"measurement": "GI50", "setting": "[33]", "result": "> 100 µM (inactive)"},
      {"measurement": "GI50", "setting": "[34]", "result": "> 100 µM (inactive)"},
      {"measurement": "GI50", "setting": "[35]", "result": "> 100 µM (inactive)"},
      {"measurement": "GI50", "setting": "[36]", "result": "> 100 µM (inactive)"},
      {"measurement": "GI50", "setting": "[37]", "result": "> 100 µM (inactive)"},
      {"measurement": "GI50", "setting": "[38]", "result": "> 100 µM (inactive)"},
      {"measurement": "GI50", "setting": "[39]", "result": "> 100 µM (inactive)"},
      {"measurement": "GI50", "setting": "[40]", "result": "> 100 µM (inactive)"},
      {"measurement": "GI50", "setting": "[41]", "result": "> 100 µM (inactive)"},
      {"measurement": "GI50", "setting": "[42]", "result": "> 100 µM (inactive)"},
      {"measurement": "GI50", "setting": "[43]", "result": "> 100 µM (inactive)"},
      {"measurement": "GI50", "setting": "[44]", "result": "> 100 µM (inactive)"},
      {"measurement": "GI50", "setting": "[45]", "result": "> 100 µM (inactive)"},
      {"measurement": "GI50", "setting": "[46]", "result": "> 100 µM (inactive)"},
      {"measurement": "GI50", "setting": "[47]", "result": "> 100 µM (inactive)"},
      {"measurement": "GI50", "setting": "[48]", "result": "> 100 µM (inactive)"},
      {"measurement": "GI50", "setting": "[49]", "result": "> 100 µM (inactive)"},
      {"measurement": "GI50", "setting": "[50]", "result": "> 100", "unit": "µM"},
      {"measurement": "GI50", "setting": "[51]", "result": "> 100 µM (inactive)"},
      {"measurement": "GI50", "setting": "[52]", "result": "> 100 µM (inactive)"},
      {"measurement": "GI50", "setting": "[53]", "result": "> 100 µM (inactive)"},
      {"measurement": "GI50", "setting": "[54]", "result": "> 100 µM (inactive)"},
      {"measurement": "GI50", "setting": "[55]", "result": "> 100 µM (inactive)"},
      {"measurement": "GI50", "setting": "[56]", "result": "> 100 µM (inactive)"},
      {"measurement": "GI50", "setting": "[57]", "result": "> 100 µM (inactive)"}
    ]}
  ]
}
